According to US20240246942A1, “KINASE INHIBITORS FOR THE TREATMENT OF NEURODEGENERATIVE DISEASES” (priority 2020, published 2024):
Where two headings read alike, the source gives them in different places.

How the values were obtained:
Experiment in all cases: biochemical
[1] = target: T1, panel of 374 wild-type kinases (Homo sapiens, UniProt O00506); details: read-out: % Enzyme Activity (relative to DMSO controls), kinase STK25/YSK1
T1 construct: purchased Reaction Biology Corporation

[2] = target: T2, panel of 374 wild-type kinases (Homo sapiens, UniProt O14965); details: read-out: % Enzyme Activity (relative to DMSO controls), Aurora A
T2 construct: purchased Reaction Biology Corporation
T2 sequence (O14965 1-403): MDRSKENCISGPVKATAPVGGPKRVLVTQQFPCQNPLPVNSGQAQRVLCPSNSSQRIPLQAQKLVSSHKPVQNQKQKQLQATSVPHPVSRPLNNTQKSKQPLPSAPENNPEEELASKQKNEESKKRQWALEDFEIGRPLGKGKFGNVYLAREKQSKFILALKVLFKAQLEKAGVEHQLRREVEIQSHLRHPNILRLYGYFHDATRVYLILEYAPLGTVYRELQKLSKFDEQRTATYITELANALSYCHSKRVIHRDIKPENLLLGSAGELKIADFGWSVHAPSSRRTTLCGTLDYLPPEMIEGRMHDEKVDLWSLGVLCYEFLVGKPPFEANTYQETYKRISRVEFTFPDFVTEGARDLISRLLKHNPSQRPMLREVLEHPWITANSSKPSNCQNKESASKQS

[3] = target: T3, panel of 374 wild-type kinases (Homo sapiens, UniProt O95835); details: read-out: % Enzyme Activity (relative to DMSO controls), LATS1
T3 construct: purchased Reaction Biology Corporation
T3 sequence (O95835 1-1130): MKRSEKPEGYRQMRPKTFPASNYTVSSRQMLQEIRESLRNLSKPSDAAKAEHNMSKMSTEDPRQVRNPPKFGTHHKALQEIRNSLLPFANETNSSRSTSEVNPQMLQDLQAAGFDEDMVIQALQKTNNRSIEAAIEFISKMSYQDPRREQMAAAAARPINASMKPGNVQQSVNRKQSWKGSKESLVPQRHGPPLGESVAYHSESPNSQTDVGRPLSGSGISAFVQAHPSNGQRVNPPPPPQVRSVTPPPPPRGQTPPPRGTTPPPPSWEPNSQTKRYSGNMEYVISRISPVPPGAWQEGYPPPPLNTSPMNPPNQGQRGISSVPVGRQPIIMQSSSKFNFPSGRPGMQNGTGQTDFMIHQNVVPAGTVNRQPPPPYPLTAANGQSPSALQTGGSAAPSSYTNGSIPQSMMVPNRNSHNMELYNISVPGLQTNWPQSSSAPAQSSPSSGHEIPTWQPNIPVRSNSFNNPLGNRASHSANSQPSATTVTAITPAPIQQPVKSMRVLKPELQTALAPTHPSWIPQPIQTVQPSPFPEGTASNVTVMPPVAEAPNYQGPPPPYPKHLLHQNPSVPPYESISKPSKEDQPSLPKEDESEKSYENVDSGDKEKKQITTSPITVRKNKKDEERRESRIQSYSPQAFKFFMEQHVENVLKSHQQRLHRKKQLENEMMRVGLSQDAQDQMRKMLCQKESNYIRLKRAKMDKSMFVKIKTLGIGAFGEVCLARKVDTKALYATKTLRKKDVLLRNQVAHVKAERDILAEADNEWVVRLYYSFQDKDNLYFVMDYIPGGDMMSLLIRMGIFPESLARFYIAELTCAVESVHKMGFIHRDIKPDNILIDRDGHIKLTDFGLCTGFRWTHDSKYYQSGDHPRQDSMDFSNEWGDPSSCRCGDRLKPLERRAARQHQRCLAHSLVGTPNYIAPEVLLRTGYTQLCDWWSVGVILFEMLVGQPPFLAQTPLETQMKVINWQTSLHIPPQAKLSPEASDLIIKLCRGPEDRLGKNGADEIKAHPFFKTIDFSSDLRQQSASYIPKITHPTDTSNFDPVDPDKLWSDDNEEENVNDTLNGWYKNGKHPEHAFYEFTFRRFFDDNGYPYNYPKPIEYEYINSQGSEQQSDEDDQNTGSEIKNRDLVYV

[4] = target: T4, panel of 374 wild-type kinases (Homo sapiens, UniProt P51617); details: read-out: % Enzyme Activity (relative to DMSO controls), IRAK1
T4 construct: purchased Reaction Biology Corporation
T4 sequence (P51617 whole entry): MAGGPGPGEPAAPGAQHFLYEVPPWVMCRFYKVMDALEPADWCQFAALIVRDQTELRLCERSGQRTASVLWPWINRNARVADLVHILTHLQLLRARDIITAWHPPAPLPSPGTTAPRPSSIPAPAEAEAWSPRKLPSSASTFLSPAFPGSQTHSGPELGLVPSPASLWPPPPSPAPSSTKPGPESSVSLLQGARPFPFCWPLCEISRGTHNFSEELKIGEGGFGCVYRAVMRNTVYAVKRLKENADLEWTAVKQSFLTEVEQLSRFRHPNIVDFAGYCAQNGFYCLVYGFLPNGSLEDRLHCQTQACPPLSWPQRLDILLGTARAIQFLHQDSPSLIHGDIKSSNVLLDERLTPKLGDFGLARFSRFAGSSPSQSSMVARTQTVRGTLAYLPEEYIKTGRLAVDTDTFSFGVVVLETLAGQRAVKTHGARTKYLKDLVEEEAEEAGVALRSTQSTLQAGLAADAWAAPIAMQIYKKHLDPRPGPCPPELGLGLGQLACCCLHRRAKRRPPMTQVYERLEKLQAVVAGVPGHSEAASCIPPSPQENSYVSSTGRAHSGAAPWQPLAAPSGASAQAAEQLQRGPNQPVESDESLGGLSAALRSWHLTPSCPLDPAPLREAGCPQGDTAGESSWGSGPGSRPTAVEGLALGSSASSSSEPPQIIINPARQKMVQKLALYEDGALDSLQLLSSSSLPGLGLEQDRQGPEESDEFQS

[5] = target: T5, panel of 374 wild-type kinases (Homo sapiens, UniProt Q16513)
T5 construct: purchased Reaction Biology Corporation
T5 sequence (Q16513 whole entry): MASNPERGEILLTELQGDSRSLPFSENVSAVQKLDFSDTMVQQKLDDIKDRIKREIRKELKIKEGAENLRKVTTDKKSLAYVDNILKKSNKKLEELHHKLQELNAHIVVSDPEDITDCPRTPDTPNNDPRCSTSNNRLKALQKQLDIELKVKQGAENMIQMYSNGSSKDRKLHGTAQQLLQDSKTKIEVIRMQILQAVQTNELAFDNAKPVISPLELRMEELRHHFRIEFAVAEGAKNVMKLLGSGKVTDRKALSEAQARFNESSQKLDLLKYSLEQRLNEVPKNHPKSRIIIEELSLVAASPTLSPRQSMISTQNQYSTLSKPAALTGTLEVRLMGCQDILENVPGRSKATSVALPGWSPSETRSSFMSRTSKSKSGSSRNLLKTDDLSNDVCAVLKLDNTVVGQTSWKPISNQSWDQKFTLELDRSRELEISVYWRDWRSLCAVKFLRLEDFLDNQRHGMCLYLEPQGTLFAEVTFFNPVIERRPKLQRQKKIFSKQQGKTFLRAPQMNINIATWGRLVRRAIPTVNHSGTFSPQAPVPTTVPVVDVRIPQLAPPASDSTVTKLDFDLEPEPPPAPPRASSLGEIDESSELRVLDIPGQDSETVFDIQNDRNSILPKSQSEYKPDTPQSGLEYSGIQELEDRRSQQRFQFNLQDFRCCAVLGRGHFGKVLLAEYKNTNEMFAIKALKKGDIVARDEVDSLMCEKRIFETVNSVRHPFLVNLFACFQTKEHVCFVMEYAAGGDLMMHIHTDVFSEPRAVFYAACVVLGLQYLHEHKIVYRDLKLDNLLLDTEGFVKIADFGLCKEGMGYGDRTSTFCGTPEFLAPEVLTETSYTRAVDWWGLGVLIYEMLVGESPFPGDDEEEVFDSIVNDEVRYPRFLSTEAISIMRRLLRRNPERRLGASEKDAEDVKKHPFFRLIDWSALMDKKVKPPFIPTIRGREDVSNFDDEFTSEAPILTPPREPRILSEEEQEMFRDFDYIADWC

[6] = target: T6, panel of 374 wild-type kinases (Homo sapiens, UniProt Q9UEE5); details: read-out: % Enzyme Activity (relative to DMSO controls), DRAK1/STK17A
T6 construct: purchased Reaction Biology Corporation
T6 sequence (Q9UEE5 1-414): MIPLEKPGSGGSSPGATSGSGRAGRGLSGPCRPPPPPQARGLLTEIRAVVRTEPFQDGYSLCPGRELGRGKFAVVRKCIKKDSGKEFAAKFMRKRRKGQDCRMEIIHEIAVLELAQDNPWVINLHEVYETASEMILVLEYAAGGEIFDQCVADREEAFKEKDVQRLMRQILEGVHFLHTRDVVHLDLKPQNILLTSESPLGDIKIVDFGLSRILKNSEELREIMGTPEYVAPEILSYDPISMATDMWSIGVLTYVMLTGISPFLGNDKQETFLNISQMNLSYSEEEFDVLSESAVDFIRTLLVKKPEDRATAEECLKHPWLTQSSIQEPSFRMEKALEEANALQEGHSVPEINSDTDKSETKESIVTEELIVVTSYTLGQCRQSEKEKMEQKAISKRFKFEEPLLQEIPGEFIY

T1 sequence (O00506 whole entry): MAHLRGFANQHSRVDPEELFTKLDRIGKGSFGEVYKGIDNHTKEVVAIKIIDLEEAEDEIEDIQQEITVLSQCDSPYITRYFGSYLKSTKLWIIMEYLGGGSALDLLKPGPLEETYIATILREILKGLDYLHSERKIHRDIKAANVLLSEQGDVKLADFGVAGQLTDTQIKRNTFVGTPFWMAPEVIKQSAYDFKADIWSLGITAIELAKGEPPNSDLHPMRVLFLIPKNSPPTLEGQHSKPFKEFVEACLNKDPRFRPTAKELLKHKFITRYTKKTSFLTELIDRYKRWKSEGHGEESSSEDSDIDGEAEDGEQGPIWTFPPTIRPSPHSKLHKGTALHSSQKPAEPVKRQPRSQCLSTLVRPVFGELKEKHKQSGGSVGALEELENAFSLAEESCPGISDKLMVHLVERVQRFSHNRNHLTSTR

Row | SMILES | remaining activity at 5 µM [1] | remaining activity at 5 µM [2] | remaining activity at 5 µM [3] | remaining activity at 5 µM [4] | remaining activity at 5 µM ([5]; read-out: % Enzyme Activity (relative to DMSO controls), kinase PKN2/PRK2) | remaining activity at 5 µM [6] | remaining activity at 10 µM ([1]; 10 uM) | remaining activity at 10 µM ([2]; 10 uM) | remaining activity at 10 µM ([3]; 10 uM) | remaining activity at 10 µM ([4]; 10 uM) | remaining activity at 10 µM ([5]; read-out: % Enzyme Activity (relative to DMSO controls), kinase PKN2/PRK2, 10 uM) | remaining activity at 10 µM ([6]; 10 uM) | remaining activity at 5 µM ([5]; kinase PKN2/PRK2, read-out: % Enzyme Activity (relative to DMSO controls))
1 | O=C(Nc1cnn(-c2csc(C(=O)NC3COC3)c2)c1)Nc1ccccc1Cl [Compound 17, 4-(4-(3-(2-chlorophenyl)ureido)-1H-pyrazol-1-yl)-N-(oxetan-3-yl)thiophene-2-carboxamide] | 106% | 105% | 106% | 112% | 112% | 98.4% |  |  |  |  |  |  | 
2 | Cc1sc(C(=O)NC2COC2)cc1-n1cc(NC(=O)Nc2c(F)cccc2Cl)cn1 [Compound 27, 4-(4-(3-(2-chloro-6-fluorophenyl)ureido)-1H-pyrazol-1-yl)-5-methyl-N-(oxetan-3-yl)thiophene-2-carboxamide] |  |  |  |  |  |  | 70.5% | 88.4% | 97.2% | 79.9% | 87.1% | 111% | 
3 | O=C(Nc1cnn(-c2csc(C(=O)NC3COC3)c2)c1)Nc1c(F)cccc1Cl [Compound 25, 4-(4-(3-(2-chloro-6-fluorophenyl)ureido)-1H-pyrazol-1-yl)-N-(oxetan-3-yl)thiophene-2-carboxamide] | 96.1% | 83.1% | 93.5% | 107% |  | 89.4% |  |  |  |  |  |  | 105%
